# Tests used:
# [1] = cited from earlier work
# Description: Some JmjC KDMs can also catalyse N-methyl arginine demethylation and with appropriately sized N^ε-substitutions some can catalyse forma ...
# KDM4EJmjC (M1–Q337) = target: T1, KDM4EJmjC (M1–Q337) (Homo sapiens, UniProt B2RXH2); assay: MALDI-TOF demethylation assay, KDM4EJmjC; assay type: biochemical
# T1 construct: We chose human KDM4EJmjC (M1–Q337); made in house
# T1 sequence (B2RXH2 1-337): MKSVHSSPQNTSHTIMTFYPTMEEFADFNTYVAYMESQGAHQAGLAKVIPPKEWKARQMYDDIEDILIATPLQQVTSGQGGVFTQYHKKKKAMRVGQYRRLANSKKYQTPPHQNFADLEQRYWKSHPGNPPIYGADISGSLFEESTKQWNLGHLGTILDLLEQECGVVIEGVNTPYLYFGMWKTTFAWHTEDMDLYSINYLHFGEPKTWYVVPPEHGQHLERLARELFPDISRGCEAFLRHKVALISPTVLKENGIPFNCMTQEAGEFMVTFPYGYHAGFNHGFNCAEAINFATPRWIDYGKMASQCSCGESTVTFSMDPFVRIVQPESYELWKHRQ
# Protocol: Reactions were monitored using MALDI-TOF mass spectrometry (Fig. 5b–d).
# A Bruker Daltonics MALDI-TOF/TOF AutoflexSpeed machine and Bruker MTP 384 target plates (polished steel BC, Part: 8280781) were used. The machine was controlled using Flex control (v. 3.4 build 135.10) and Compass for flex series (v. 1.4) software. Measurements were in the positive ion mode with the reflectron mode enabled. Incubations employed ProxiPlate-384™ (Perkin Elmer) plates into which was pipetted a solution of [H3_1-15K9me3 (10.0 µM), (+)-sodium L-ascorbate (1.0 mM), (NH4)2Fe(II)(SO4)2 (100 µM), di-sodium 2-oxoglutarate (200 µM) in buffer (HEPES (50 mM)) in MilliQ (pH 7.5)] (5.0 µL) using ClipTip™ (Thermo Scientific™) pipette tips and E1-ClipTip™ (Thermo Scientific™). The enzyme solution [KDM4EJmjC (1.0 µM) in HEPES (50 mM)] (5.0 µL) was added to initiate reaction at 37 °C. Reactions were quenched with formic acid in water (2%, 5.0 µL). Samples were then spotted onto a MALDI-TOF target plate (1.0 µL), MALDI matrix [sat. sol. α-cyano-4-hydroxy-cinnamic acid (10 mg·mL^−1) in {trifluoro acetic acid, acetonitrile and MilliQ (0.1:50:50)}] (1.0 µL) was added, mixed, and dried in air. Samples were then analysed by MALDI-TOF. Specific experiments were supplemented with catalase from bovine liver (C3155-50MG, Merck) (5.0 µM), bovine albumin serum (BSA, Perkin Elmer, CR84-100, DTPA purified 7.5%) (5.0 µM), or Tris(carboxyethyl)phosphine hydrochloride salt (TCEP, M02624, Fluorochem) (500 µM).
# KDM7BJmjC (M37–N483) = assay: MALDI-TOF demethylation assay, KDM7BJmjC; assay type: biochemical; conditions: 1 hr
# Description: To investigate whether H3KP9me3 can be demethylated by other human KDM4 subfamily members, recombinant KDM4AJmjC (M1–L359) and KDM4DJmjC (M1–L358) were produced in E. coli following an adaption of literature procedures[38],[39]. […] To test the ability of KDM3 and KDM7 subfamily representatives to demethylate H3KP9me2 or H3KP9me3, KDM3AJmjC (T515–S1317) and KDM7BJmjC (M37–N483) were produced using baculovirus/sf9 and E. coli expression systems, respectively[40],[41]. The synthesis of a histone H3 mimic peptide H3KP9me2 substrate is challenging as the tri-alkylated phosphine group is susceptible to oxidation during synthesis of the protected amino acid and during SPPS requiring oxygen-free conditions. Thus, to investigate if KDM3AJmjC or KDM7BJmjC can catalyse demethylation of H3KP9me2, an appropriate H3KP9me2 substrate was prepared in situ from H3KP9me3 using KDM4EJmjC (2.0 µM), in the presence of KDM3AJmjC (2.0 µM) or KDM7BJmjC (2.0 µM).
# A Bruker Daltonics MALDI-TOF/TOF AutoflexSpeed machine and Bruker MTP 384 target plates (polished steel BC, Part: 8280781) were used. The machine was controlled using Flex control (v. 3.4 build 135.10) and Compass for flex series (v. 1.4) software. Measurements were in the positive ion mode with the reflectron mode enabled. […] Samples were then analysed by MALDI-TOF. […]
Molecule,"bond length (C-P or C-N) ([1]; C-P bond in H3KP4me3, C-N bond in H3K4me3) [Å]","demethylation in competition assay (KDM4EJmjC (M1–Q337); H3K9me3 (5.0 µM) and H3KP9me3 (5.0 µM) in the same vessel, KDM4EJmjC 0.5 µM)",relative substrate quality / rate (KDM4EJmjC (M1–Q337); H3K9me3 versus H3KP9me3),"demethylation in omission controls (KDM4EJmjC (M1–Q337); H3KP9me3: without KDM4EJmjC, Asc, Fe(II) or 2OG, H3K9me3: without Asc and Fe(II), 1 hr)","demethylation (KDM4EJmjC (M1–Q337); KDM4EJmjC 0.5 µM (H3KP9me3 also at 5.0 µM enzyme), peptide 5.0 or 6.0 µM, Asc 500 µM, Fe(II) 50 µM, 2OG 100 µM)","effect of catalase with or without Asc or BSA (KDM4EJmjC (M1–Q337); KDM4EJmjC 0.5 µM, catalase 5.0 µM, BSA 5.0 µM)","yield with TCEP rather than Asc (KDM4EJmjC (M1–Q337); TCEP as a reducing agent, KDM4EJmjC 0.5 µM)","product formation (KDM4EJmjC (M1–Q337); stoichiometric: KDM4EJmjC 5.0 µM, peptide 5.0 µM)",volume difference Δ[^+Pme4-^+Nme4] ([1]; H3KP9me3 compared to H3K9me3) [Å^3],"demethylation in combination with KDM4EJmjC (KDM7BJmjC (M37–N483); KDM7BJmjC 2.0 µM plus KDM4EJmjC 2.0 µM, peptide 5.0 µM)","demethylation (KDM7BJmjC (M37–N483); KDM7BJmjC 2.0 µM, H3KP9me2 prepared in situ with KDM4EJmjC)"
C[C@H](N)C(=O)N[C@@H](CCCNC(=N)N)C(=O)N[C@H](C(=O)N[C@@H](CCCC[P+](C)(C)C)C(=O)N[C@@H](CCC(N)=O)C(=O)N[C@H](C(=O)N[C@@H](C)C(=O)N[C@@H](CCCNC(=N)N)C(=O)N[C@@H](CCCCN)C(=O)N[C@@H](CO)C(N)=O)[C@@H](C)O)[C@@H](C)O [H3KP4me3],1.87,,,,,,,,,,
"ARTKQTAR(KPme3)STGGKA [H3KP9me3, histone H3 residues 1–15 with trimethylphosphonium lysine analogue at position 9]",,no evidence that H3KP9me3 was converted to H3KP9me2 or H3KP9me2O,demethylation rate is significantly slower for H3KP9me3 than for H3K9me3,little or no H3KP9me2 or H3KP9me2O formation,only undergo a single demethylation (−14 Da) to give H3KP9me2,did not substantially alter the amounts of H3KP9me2 or H3KP9me2O,slightly increased yields of H3KP9me2 and H3KP9me2O,"faster H3KP9me2 and H3KP9me2O product formation, but no evidence for H3KP9me1 or H3KP9 formation",10,"produced H3KP9me2 (due to KDM4EJmjC catalysis), but did not result in masses consistent with H3KP9me1 or H3KP9",do not catalyse demethylation of H3K9me3 (as anticipated) or H3KP9me3
